Results taken from ChEMBL document CHEMBL5107953, “SAR study of 4-arylazo-3,5-diamino-1H-pyrazoles: identification of small molecules that induce dispersal of Pseudomonas aeruginosa biofilms” (2021).

System: Pseudomonas aeruginosa
Test: Anti-biofilm activity against Pseudomonas aeruginosa PAO1 harboring wspF gene mutation assessed as reduction on c-di-GMP level by measuring GFP fluorescence at 100 uM incubated for 24 hrs […]
Assay type: functional
Parameters: scale not given: the % may be the effect or the level left

## COc1ccc(NN=C2C(N)=NN=C2N)cc1
  Activity: 0%

## N=C1NN=C(N)/C1=N/Nc1cc(F)ccc1F
  Activity: 65%

## N=C1/C(=N\Nc2ccccc2F)C(N)=NN1c1ccc(S(N)(=O)=O)cc1
  Activity: 0%

## N=C1NN=C(N)/C1=N/Nc1ccccc1O
  Activity: 55%

## NC1=NNC(=O)/C1=N\Nc1ccccc1F
  Activity: 0%

## N=C1NN=C(N)/C1=N/Nc1c(O)cccc1F
  Activity: 75%

## N=C1NN=C(N)/C1=N/Nc1ccc(F)cc1F
  Activity: 41%

## N=C1ON=C(N)/C1=N/Nc1c(F)cccc1F
  Activity: 0%

## N=C1/C(=N\Nc2ccccc2F)C(N)=NN1CCO
  Activity: 0%

## N=C1/C(=N\Nc2ccccc2F)C(N)=NN1c1ccc(F)cc1
  Activity: 0%

## N=C1/C(=N\Nc2ccccc2F)C(N)=NN1c1ccc(C(=O)O)cc1
  Activity: 0%

## N=C1NN=C(N)C1c1ccc2ccccc2n1 (stereo unspecified)
  Activity: 0%

## N=C1NN=C(N)/C1=N/Nc1cc(Br)cc(Br)c1
  Activity: 0%

## CC(=O)/N=C1\NN=C(NC(C)=O)\C1=N\Nc1ccccc1F
  Activity: 0%

## CC(=O)NC1=NN(C(C)=O)C(=N)/C1=N\Nc1ccccc1F
  Activity: 0%

## Cc1cccc(F)c1N/N=C1\C(=N)NN=C1N
  Activity: 0%

## NC1=NOC(=O)/C1=N\Nc1ccccc1F
  Activity: 0%

## N=C1NN=C(N)/C1=N/Nc1cc(F)cc(F)c1
  Activity: 35%

## N=C1NN=C(N)/C1=N/Nc1c(F)cccc1Br
  Activity: 0%

## N=C1ON=C(N)/C1=N/Nc1cc(F)ccc1F
  Activity: 0%

## N=C1NN=C(N)/C1=N/Nc1ccccc1
  Activity: 71%

## N=C1ON=C(N)/C1=N/Nc1c(O)cccc1F
  Activity: 0%

## N=C1NN=C(N)/C1=N/Nc1ccncc1F
  Activity: 0%

## N=C1/C(=N\Nc2ccccc2F)C(N)=NN1S(=O)(=O)c1ccc(N)cc1
  Activity: 0%

## N=C1NN=C(N)/C1=N/Nc1cccnc1F
  Activity: 13%

## NNc1ccccc1F
  Activity: 0%

## N=C1/C(=N\Nc2ccccc2F)C(N)=NN1Cc1ccccc1
  Activity: 0%

## N=C1NN=C(N)/C1=N/Nc1ccccc1C(F)(F)F
  Activity: 0%

## N=C1NN=C(N)/C1=N/Nc1ccccc1Br
  Activity: 0%

## N=C1NN=C(N)/C1=N/Nc1c(O)cccc1O
  Activity: 15%

## N=C1NN=C(N)/C1=N/Nc1cccc(F)c1F
  Activity: 48%

## N=C1NN=C(N)/C1=N/Nc1ccc(F)c(F)c1F
  Activity: 0%

## N=C1/C(=N\Nc2ccccc2F)C(N)=NN1C(=O)c1ccccc1
  Activity: 0%

## N=C1NN=C(N)/C1=N/Nc1ccccc1I
  Activity: 0%

## N=C1NN=C(N)/C1=N/Nc1ccccc1Cl
  Activity: 0%

## N=C1ON=C(N)/C1=N/Nc1ccccc1F
  Activity: 0%

## N=C1NN=C(N)/C1=N/Nc1cc(Br)ccc1Br
  Activity: 0%

## Cc1ccc(N/N=C2\C(=N)NN=C2N)c(F)c1
  Activity: 0%

## O=C1NNC(=O)C1=NNc1ccccc1F
  Activity: 0%

## N=C1NN=C(N)/C1=N/Nc1ccccc1N
  Activity: 0%

## N=C1NN=C(N)/C1=N/Nc1ccc(F)cc1
  Activity: 44%

## N=C1ONC(=O)/C1=N\Nc1ccccc1F
  Activity: 0%

## N=C1NN=C(N)/C1=N/Nc1cccc(O)c1
  Activity: 0%

## N=C1/C(=N\Nc2ccccc2F)C(N)=NN1C(=O)c1ccncc1
  Activity: 40%

## N=C1NN=C(N)/C1=N/Nc1cc(Br)ccc1F
  Activity: 0%

## N=C1NN=C(N)/C1=N/Nc1c(Br)cccc1Br
  Activity: 0%

## COc1ccccc1N/N=C1\C(=N)NN=C1N
  Activity: 0%

## N=C1NN=C(N)/C1=N/Nc1c(F)cccc1F
  Activity: 77%

## N=C1NN=C(N)/C1=N/Nc1c(F)ccc(F)c1F
  Activity: 61%

## N=C1NN=C(N)/C1=N/Nc1c(F)cc(F)cc1F
  Activity: 30%

## N=C1NN=C(N)/C1=N/Nc1ccccc1F
  Activity: 83%

## N=C1NN=C(N)/C1=N/Nc1cccc(F)c1
  Activity: 73%

## N=C1NN=C(N)/C1=N/Nc1cc(F)ccc1Br
  Activity: 0%

## N=C1/C(=N\Nc2ccccc2F)C(N)=NN1S(=O)(=O)c1ccccc1
  Activity: 0%

## N=C1ON=C(N)/C1=N/Nc1ccccc1O
  Activity: 0%

## O=C1NOC(=O)/C1=N\Nc1ccccc1F
  Activity: 0%
